Measured values reported in US20120302546A1, “NOVEL SULFAMIDES EXHIBITING NEUROPROTECTIVE ACTION AND METHODS FOR USE THEREOF” (FOX CHASE CHEMICAL DIVERSITY CENTER, INC., priority 2010, published 2012).

What was measured:
Hippocampal Cultures [1] = experiment: Neuroprotection from glutamate excitotoxicity, propidium iodide cell death assay; format: cell-based, rat; conditions: for EC50: Rattus norvegicus, Hippocampal Cultures, read-out: NP from Glutamate PI EC50
Experimental: Hydroxyethyl sulfamides attenuate glutamate-mediated cell death: As an example of HES compounds that prevent cell death associated with glutamate, compound II is shown to attenuate an increase in propidium iodide (PI) produced by acute treatment with glutamate in FIG. 4. For these studies, day 20 hippocampal cultures derived from E18 rats were treated for 5 min with 30 μM glutamate. Following removal of the glutamate, cultures were treated with various concentrations of compound II and the propidium iodide method for measuring cell death was conducted 24 hours after the initiation of treatment. The dotted line labeled “control” represents the mean PI value for control culture receiving no treatment. The dotted line labeled “carisbamate” represents the mean PI value for the reference compound carisbamate, a putative neuroprotective anticonvulsant. The amount of carisbamate used was 100 μM and this concentration had the maximally observed efficacy for this compound. RFU is an abbreviation for relative fluorescent units. Day 15 is the number of days that the cultures were maintained in vitro before conducting the experiment.
(§1) Cell cultures: All compounds are screened with dissociated hippocampal cultures derived from embryonic day 18 rats as the primary test system. With this preparation, primary neurons are used to test for toxicity as well as neuroprotection in a highly relevant experimental system to epilepsy. In brief, hippocampal tissue are obtained commercially through Brain Bits (Springfield, Ill.) and cultures prepared as previously described by Brewer (Brewer, G. J. Serum-free B27/neurobasal medium supports differentiated growth of neurons from the striatum, substantia nigra, septum, cerebral cortex, cerebellum and dentate gyms, J. Neurosci. Res. 1995, 42, 674-683.). The hippocampal neurons are platted at low density (10,000 cell/well) in a 96-well format and maintained in serum-free medium consisting of Neurobasal Medium supplemented with B27 and GlutaMAX (Gibco). Pre-coated poly-L-lysine coated plates are used because of the preferential adherence and survival of hippocampal neurons on this matrix support.
(§2) Carboxyfluorescein (CFDA) was used a vital stain for all cell toxicity and neuroprotection studies. With the use of the CytoFluor fluorimeter, the CFDA assay was employed to assess the viability of neurons. CFDA is a dye that becomes fluorescent upon cell entry and cleavage by cytosolic esterases (Petroski, R. E.; Geller, H. M Selective labeling of embryonic neurons cultures on astrocyte monolayers with 5(6)-carboxyfluorescein diacetate (CFDA). J. Neurosci. Methods 1994, 52, 23-32.). Neuronal specificity is obtained relative to astrocytes because the cleaved dye is extruded extracellularly by glia with time, while dye in neurons remains intracellular. […] To further assess the culture responses, a propidium iodide method was used as previously described (Sarafian, T. A.; Kouyoumjian, S.; Tashkin, D.; Roth, M. D. Synergistic cytotoxicity of 9-tetrahydrocannabianol and butylated hydroxyanisole, Tox. Letters, 2002. 133, 171-179.) to measure the number of dead cells. Propidium iodide becomes fluorescent when binding to the DNA of dead cells. Cultures were treated on day 2 with the test agent and then the two assays were conducted after a […] test period. For all assays, a 96-well format was used. For the screen, log concentration-effect studies were conducted from 10 nM to 1 mM with 8 replications. The duration of the test period was five days. Cultures were given a complete change of medium prior to the initiation of the treatment period.
(§3) Potent neuroprotection is the distinguishing characteristic that separates this program's anticonvulsants from all other commercial drugs for epilepsy. The experimental details and the rationale for the implemented assays are essential in differentiating these compounds from that of others. […]

Hippocampal Cultures [2] = experiment: Neuroprotection from glutamate excitotoxicity, CFDA neuronal viability assay; format: cell-based, rat; conditions: for EC50: Rattus norvegicus, 30 μM glutamate, Hippocampal Cultures, read-out: NP from Glutamate CFDA EC50
Experimental: Pharmacology: Hydroxyethyl sulfamides attenuate glutamate-mediated neuronal viability. As an example, compound II, shown above, is shown to attenuate a decrease in carboxyfluorescein diacetate (CFDA) produced by acute treatment with glutamate in FIG. 1. For these studies, day 20 hippocampal cultures derived from E18 rats were treated for 5 min with 30 μM glutamate. Following removal of the glutamate, cultures were treated with various concentrations of compound II and the CFDA neuronal viability assay was conducted 24 hours after the initiation of treatment. The dotted line labeled “control” represents the mean CFDA value for control culture receiving no treatment. The dotted line labeled “carisbamate” represents the mean CFDA value for the reference compound carisbamate, a putative neuroprotective, anticonvulsant. For the CFDA measurements, RFU is the abbreviation for relative fluorescent units. The reference anticonvulsant compound carisbamate was tested at 100 μM, as lower concentrations were ineffective.
as §1, §2
as §3, with “others. The central objective of all neuroprotective assays was their relevancy to excitotoxicity and oxidative stress related to epilepsy.” for “others.”

Hippocampal Cultures [3] = experiment: Neuroprotection from hydrogen peroxide (oxidative stress), propidium iodide assay; format: cell-based; conditions: Rattus norvegicus, 10 μM Hydrogen Peroxide, read-out: NP from HP PI EC50
Excerpt: as §1
(§4) Potent neuroprotection is the distinguishing characteristic that separates this program's anticonvulsants from all other commercial drugs for epilepsy. The experimental details and the rationale for the implemented assays are essential in differentiating these compounds from that of others. The central objective of all neuroprotective assays was their relevancy to excitotoxicity and oxidative stress related to epilepsy. Both the amount of glutamate and hydrogen peroxide used in the assays, as well as the time of treatment and duration of the experiment, were designed to be relevant to epilepsy. Further, all time parameters employed in these studies were empirically determined to be within the limits of reversible toxic events, yet using amounts of glutamate and hydrogen peroxide that were relevant to the disease. In regard to glutamate toxicity, a critical feature was the duration of treatment of the hippocampal neurons. The rational for using a short 5 min treatment with glutamate was based on the observation of Randall and Thayer (Randall, R. D.; Thayer, S. A. Glutamate-induced calcium transient triggers calcium overload and neurotoxicity in rat hippocampal neurons, J. Neurosci. 1992, 12, 1882-1895). […] The rationale is that this intense burst of glutamate and resulting calcium overload is relevant to seizures and therefore was important data to capture in the screening assay. The amount of glutamate (30 μM) employed in our screening was based on the basal levels of glutamate observed in microdialysis measurements of hippocampus from epileptogenic patients (Cavus et al. Decreased hippocampal volume on MRI is associated with increased extracellular glutamate in epilepsy patients, Epilepsia, 2008, 49, 1358-1366.). In regard to hydrogen peroxide, the amount employed (10 μM) was detected in the hippocampus of rats after kainate-induced status epilepticus (Jarrett et. al., Mitochondrial DNA damage and impaired base excision repair during epileptogenesis, Neurobiol. Dis. 2008, 30, 130-138). To produce neural damage and death with these amounts of glutamate and hydrogen peroxide, the cultures were changed to a medium with significant depletion of antioxidant components in the defined medium supplement B-27 just prior to treatment with the compounds. This was performed to obtain a significant and reproducible toxic signal in the hippocampal neurons and because loss of antioxidant control may be a component of epileptogenesis (Waldbaum and Patel, Mitochondria, oxidative stress and temporal lobe epilepsy, Epilepsy Res. 2010 88, 23-45.; Wu et al., Mitochondrial DNA mutation-elicited oxidative stress, oxidative damage, and altered gene expression in cultured cells of patients with MERRF syndrome, Mol. Neurobiol. 2010, 41, 256-266.). Neuroprotection studies with hydrogen peroxide were conducted with cultures that were between day 12 and day 18. Studies of neuroprotection glutamate were conducted between day 19 and day 22. […]

Hippocampal Cultures [4] = experiment: Neuroprotection from hydrogen peroxide (oxidative stress), CFDA assay; format: cell-based; conditions: Rattus norvegicus, 10 μM Hydrogen Peroxide, read-out: NP from HP CFDA EC50
Excerpt: as §1, §4

[5] = day 20 hippocampal cultures, 5 min 30 μM glutamate, CFDA assay 24 hours after initiation of treatment (FIG. 1-3)

CC(O)(CNS(N)(=O)=O)c1ccccc1Cl (stereo not drawn) [Example 8, 2-(2-chlorophenyl)-2-methyl-2-hydroxyethylsulfamide]
EC50 (Hippocampal Cultures [1]; 30 μM glutamate): 300 µM | EC50 (Hippocampal Cultures [2]): > 300 µM | EC50 (Hippocampal Cultures [3]): 0.1 µM | EC50 (Hippocampal Cultures [4]): 100 µM

NS(=O)(=O)NCC(O)c1ccccc1F (stereo not drawn) [Example 6, 2-(2-fluorophenyl)-2-hydroxyethylsulfamide]
EC50 (Hippocampal Cultures [1]; 30 μM glutamate): 10 µM | EC50 (Hippocampal Cultures [2]): 100 µM | EC50 (Hippocampal Cultures [3]): 0.01 µM | EC50 (Hippocampal Cultures [4]): 10 µM

NS(=O)(=O)NC[C@@H](O)c1ccccc1Cl [Example 12, (S)-2-(2-Chlorophenyl)-2-hydroxyethylsulfamide]
EC50 (Hippocampal Cultures [1]; 30 μM glutamate): 10 µM | EC50 (Hippocampal Cultures [2]): 30 µM | EC50 (Hippocampal Cultures [3]): > 300 µM | EC50 (Hippocampal Cultures [4]): 30 µM

NS(=O)(=O)NCC(O)c1cccc(Cl)c1 (stereo not drawn) [Example 2, 2-(3-Chlorophenyl)-2-hydroxyethylsulfamide]
EC50 (Hippocampal Cultures [1]; 30 μM glutamate): > 300 µM | EC50 (Hippocampal Cultures [2]): > 300 µM | EC50 (Hippocampal Cultures [3]): 100 µM | EC50 (Hippocampal Cultures [4]): 100 µM

NS(=O)(=O)NCC(O)c1csc2ccccc12 (stereo not drawn) [compound IV]
effect on glutamate-mediated decrease in neuronal viability (CFDA) (Hippocampal Cultures [2]; [5]): efficacious

NS(=O)(=O)NC[C@H](O)c1ccccc1Cl [Example 13, (R)-2-(2-Chlorophenyl)-2-hydroxyethylsulfamide]
EC50 (Hippocampal Cultures [1]; 30 μM glutamate): 10 µM | EC50 (Hippocampal Cultures [2]): 0.01 µM | EC50 (Hippocampal Cultures [3]): > 300 µM | EC50 (Hippocampal Cultures [4]): 300 µM

NS(=O)(=O)NCC(O)c1ccccc1Cl (stereo not drawn) [Example 1, 2-(2-Chlorophenyl)-2-hydroxyethylsulfamide]
EC50 (Hippocampal Cultures [1]; 30 μM glutamate): 100 µM | EC50 (Hippocampal Cultures [2]): 30 µM

NC(=O)OC[C@@H](O)c1ccccc1Cl [carisbamate, reference compound]
concentration with the maximally observed efficacy (propidium iodide) (Hippocampal Cultures [1]; hippocampal cultures, 30 μM glutamate): 100 µM | effect on glutamate-mediated decrease in neuronal viability (CFDA) (Hippocampal Cultures [2]; concentrations lower than 100 μM): ineffective

NS(=O)(=O)NCC(O)c1cc(Cl)ccc1Cl (stereo not drawn) [Example 5, 2-(2,5-dichlorophenyl)-2-hydroxyethylsulfamide]
EC50 (Hippocampal Cultures [1]; 30 μM glutamate): 30 µM | EC50 (Hippocampal Cultures [2]): > 300 µM | EC50 (Hippocampal Cultures [3]): > 300 µM | EC50 (Hippocampal Cultures [4]): > 300 µM

NS(=O)(=O)NCC(O)c1ccccc1Cl (stereo not drawn) [compound II]
effect on glutamate-mediated increase in cell death (propidium iodide) (Hippocampal Cultures [1]; day 20 hippocampal cultures, 5 min 30 μM glutamate, PI 24 hours after initiation of treatment (FIG. 4)): attenuate | effect on glutamate-mediated decrease in neuronal viability (CFDA) (Hippocampal Cultures [2]; [5]): attenuate

NS(=O)(=O)NCC(O)c1ccccc1F (stereo in doubt) [Example 10, (S)-2-(2-Fluorophenyl)-2-hydroxyethylsulfamide]
EC50 (Hippocampal Cultures [1]; 30 μM glutamate): 0.1 µM | EC50 (Hippocampal Cultures [2]): 300 µM | EC50 (Hippocampal Cultures [3]): 0.1 µM | EC50 (Hippocampal Cultures [4]): 1 µM

NS(=O)(=O)NCC(O)c1cc2ccccc2s1 (stereo not drawn) [Example 4, 2-(benzothiophen-2-yl)-2-hydroxyethylsulfamide]
EC50 (Hippocampal Cultures [1]; 30 μM glutamate): 10 µM | EC50 (Hippocampal Cultures [2]): 100 µM | EC50 (Hippocampal Cultures [3]): 30 µM | EC50 (Hippocampal Cultures [4]): 100 µM

NS(=O)(=O)NCC(O)c1csc2ccccc12 (stereo not drawn) [Example 7, 2-(benzothiophen-3-yl)-2-hydroxyethylsulfamide]
EC50 (Hippocampal Cultures [1]; 30 μM glutamate): > 300 µM | EC50 (Hippocampal Cultures [2]): 30 µM

NS(=O)(=O)NCC(O)c1ccsc1 (stereo not drawn) [Example 3, 2-(thiophen-3-yl)-2-hydroxyethylsulfamide]
EC50 (Hippocampal Cultures [1]; 30 μM glutamate): 30 µM | EC50 (Hippocampal Cultures [2]): > 300 µM | EC50 (Hippocampal Cultures [3]): 30 µM | EC50 (Hippocampal Cultures [4]): 30 µM

NS(=O)(=O)NCC(O)c1ccccc1F (stereo in doubt) [Example 11, (R)-3-(2-Fluorophenyl)-2-hydroxyethylsulfamide]
EC50 (Hippocampal Cultures [3]): 300 µM | EC50 (Hippocampal Cultures [4]): 300 µM

NS(=O)(=O)N1CC(O)(c2csc3ccccc23)C1 [Example 9, 3-Benzo[b]thiophen-3-yl-3-hydroxy-azetidine-1-sulfonamide]
EC50 (Hippocampal Cultures [1]; 30 μM glutamate): 1 µM | EC50 (Hippocampal Cultures [2]): 0.1 µM | EC50 (Hippocampal Cultures [3]): > 300 µM | EC50 (Hippocampal Cultures [4]): > 300 µM
